Where “and” joins values, the source holds several entries; their conditions need not be identical. Equal entries are not always repeated. Toxic doses and inconclusive results are not listed.
Test system: BDF1 mice, P388 leukemia ip, median survival T/C
Test: NCI In Vivo Anticancer Drug Screen. Data for tumor model P388 Leukemia (intraperitoneal) in B6D2F1 (BDF1) mice
Details: endpoint: median survival time, higher = longer survival
In short: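 Transplantable tumour in mice; compound vs vehicle dosing; survival scored; ratio of treated to control reported.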

[1] = dose: 100.0 mg/kg/injection, schedule: Q01DX009 (ip), vehicle: saline
[2] = dose: 200.0 mg/kg/injection, schedule: Q01DX009 (ip), vehicle: saline with Tween-80
[3] = dose: 100.0 mg/kg/injection, schedule: Q01DX009 (ip), vehicle: saline with Tween-80
[4] = dose: 100.0 mg/kg/injection, schedule: Q01DX009 (ip), vehicle: Klucel (hydroxypropylcellulose) (HPC)
[5] = dose: 200.0 mg/kg/injection, schedule: Q01DX009 (ip), vehicle: Klucel (hydroxypropylcellulose) (HPC)
[6] = dose: 100.0 mg/kg/injection, schedule: Q04DX003 (ip), vehicle: saline with Tween-80
[7] = dose: 50.0 mg/kg/injection, schedule: Q04DX003 (ip), vehicle: saline with Tween-80
[8] = dose: 50.0 mg/kg/injection, schedule: Q01DX009 (ip), vehicle: saline with Tween-80
[9] = dose: 25.0 mg/kg/injection, schedule: Q01DX009 (ip), vehicle: saline with Tween-80

## O=C(COc1cccc(Cl)c1Cl)Nc1cccnc1
dose: 37.5 mg/kg/injection, schedule: Q01DX001 (ip), vehicle: saline with Tween-80
  T/C: 100 % of control
dose: 75.0 mg/kg/injection, schedule: Q01DX001 (ip), vehicle: saline with Tween-80
  T/C: 104 % of control
dose: 150.0 mg/kg/injection, schedule: Q01DX001 (ip), vehicle: saline with Tween-80
  T/C: 100 % of control

## CCCCNC(C)(C)COC(=O)/C=C/c1ccc(OCCCC)cc1
dose: 6.25 mg/kg/injection, schedule: Q01DX010 (ip), vehicle: saline
  T/C: 100 % of control
dose: 12.5 mg/kg/injection, schedule: Q01DX010 (ip), vehicle: saline
  T/C: 100 % of control
dose: 25.0 mg/kg/injection, schedule: Q01DX010 (ip), vehicle: saline
  T/C: 113 % of control
dose: 50.0 mg/kg/injection, schedule: Q01DX010 (ip), vehicle: saline
  T/C: 100 % of control

## CCCCCC(CN(C)C)C(=O)/C=C/c1c(Cl)cccc1Cl (stereo unspecified)
dose: 3.12 mg/kg/injection, schedule: Q04DX003 (ip), vehicle: Klucel (hydroxypropylcellulose) (HPC)
  T/C: 104 % of control
dose: 6.25 mg/kg/injection, schedule: Q01DX009 (ip), vehicle: Klucel (hydroxypropylcellulose) (HPC)
  T/C: 110 % of control
dose: 6.25 mg/kg/injection, schedule: Q04DX003 (ip), vehicle: Klucel (hydroxypropylcellulose) (HPC)
  T/C: 109 % of control
dose: 12.5 mg/kg/injection, schedule: Q04DX003 (ip), vehicle: Klucel (hydroxypropylcellulose) (HPC)
  T/C: 104 % of control
dose: 18.0 mg/kg/injection, schedule: Q04DX003 (ip), vehicle: Klucel (hydroxypropylcellulose) (HPC)
  T/C: 105 % of control
dose: 28.0 mg/kg/injection, schedule: Q04DX003 (ip), vehicle: Klucel (hydroxypropylcellulose) (HPC)
  T/C: 115 % of control
dose: 40.0 mg/kg/injection, schedule: Q01DX001 (ip), vehicle: saline
  T/C: 109 % of control
dose: 40.0 mg/kg/injection, schedule: Q04DX003 (ip), vehicle: Klucel (hydroxypropylcellulose) (HPC)
  T/C: 90 % of control
dose: 65.0 mg/kg/injection, schedule: Q01DX001 (ip), vehicle: saline
  T/C: 104 % of control

## NC(Cc1cc(Cl)c(O)c(Cl)c1)C(=O)O (stereo unspecified)
[1]
  T/C: 94 % of control
dose: 150.0 mg/kg/injection, schedule: Q01DX009 (ip), vehicle: saline
  T/C: 97 % of control
dose: 200.0 mg/kg/injection, schedule: Q01DX009 (ip), vehicle: saline
  T/C: 105 % of control

## COc1ccc(C=C2C(=O)N(C)C(=O)N(C)C2=O)cc1
dose: 50.0 mg/kg/injection, schedule: Q01DX009 (ip), vehicle: other
  T/C: 119 % of control

## Cc1onc(-c2ccccc2)c1C(=O)N1CCCN2C(=O)c3ccccc3C21 (stereo unspecified)
[2]
  T/C: 98 % of control

## CN(C)CCN1C(=O)c2cccc3cc([N+](=O)[O-])cc(c23)C1=O
dose: 3.13 mg/kg/injection, schedule: Q01DX009 (ip), vehicle: saline with Tween-80
  T/C: 160 % of control
dose: 6.25 mg/kg/injection, schedule: Q01DX009 (ip), vehicle: saline with Tween-80
  T/C: 215 % of control

## CCCCNC(C)(C)C(=O)c1cccs1
dose: 25.0 mg/kg/injection, schedule: Q01DX009 (ip), vehicle: saline
  T/C: 100 % of control
dose: 50.0 mg/kg/injection, schedule: Q01DX009 (ip), vehicle: saline
  T/C: 100 % of control
dose: 50.0 mg/kg/injection, schedule: Q04DX003 (ip), vehicle: saline
  T/C: 100 % of control
[1]
  T/C: 100 % of control
dose: 100.0 mg/kg/injection, schedule: Q04DX003 (ip), vehicle: saline
  T/C: 118 % of control

## CCOC(=O)C1=C(O)c2c(sc(C)c2-c2ccccc2)N(S(=O)(=O)c2ccc(C)cc2)CC1
[3]
  T/C: 100 % of control
[2]
  T/C: 109 % of control
dose: 400.0 mg/kg/injection, schedule: Q01DX009 (ip), vehicle: saline with Tween-80
  T/C: 95 % of control

## O=C(NCCCl)NC1c2ccccc2CCc2ccccc21
dose: 50.0 mg/kg/injection, schedule: Q01DX009 (ip), vehicle: Klucel (hydroxypropylcellulose) (HPC)
  T/C: 105 % of control
[4]
  T/C: 105 % of control
dose: 100.0 mg/kg/injection, schedule: Q04DX003 (ip), vehicle: Klucel (hydroxypropylcellulose) (HPC)
  T/C: 95 % of control
[5]
  T/C: 100 % of control
dose: 200.0 mg/kg/injection, schedule: Q04DX003 (ip), vehicle: Klucel (hydroxypropylcellulose) (HPC)
  T/C: 90 % of control

## C=C(C)C12OC3(c4ccccc4)OC1C1C4OC4(CO)C(O)C4(O)C(=O)C(C)=CC4C1(O3)C(C)C2O (stereo unspecified)
dose: 25.0 micrograms/kg/injection, schedule: Q01DX009 (ip), vehicle: saline + alcohol
  T/C: 95 % of control and 102 % of control
dose: 50.0 micrograms/kg/injection, schedule: Q01DX009 (ip), vehicle: saline + alcohol
  T/C: 93 % of control
dose: 100.0 micrograms/kg/injection, schedule: Q01DX009 (ip), vehicle: saline + alcohol
  T/C: 107 % of control
dose: 200.0 micrograms/kg/injection, schedule: Q01DX009 (ip), vehicle: saline + alcohol
  T/C: 103 % of control and 110 % of control
dose: 800.0 micrograms/kg/injection, schedule: Q01DX009 (ip), vehicle: saline + alcohol
  T/C: 116 % of control
dose: 1600.0 micrograms/kg/injection, schedule: Q01DX009 (ip), vehicle: saline + alcohol
  T/C: 106 % of control

## N#Cc1ccc(C(=O)CC(O)(C(F)(F)F)C(F)(F)F)cc1
dose: 66.0 mg/kg/injection, schedule: Q04DX003 (ip), vehicle: saline with Tween-80
  T/C: 104 % of control
[6]
  T/C: 95 % of control
dose: 150.0 mg/kg/injection, schedule: Q04DX003 (ip), vehicle: saline with Tween-80
  T/C: 104 % of control
dose: 200.0 mg/kg/injection, schedule: Q04DX003 (ip), vehicle: saline with Tween-80
  T/C: 100 % of control
dose: 400.0 mg/kg/injection, schedule: Q04DX003 (ip), vehicle: saline with Tween-80
  T/C: 95 % of control

## N/N=C1/CCN2CCCc3cccc1c32
[7]
  T/C: 100 % of control
[6]
  T/C: 110 % of control

## NC(=S)NCc1ccccc1C(O)c1ccccc1 (stereo unspecified)
[8]
  T/C: 94 % of control
[3]
  T/C: 91 % of control
[2]
  T/C: 101 % of control

## Nc1ncc(Cl)c2ccccc12
dose: 25.0 mg/kg/injection, schedule: Q01DX005 (ip), vehicle: saline with Tween-80
  T/C: 89 % of control

## CC[N+](C)(CC)CCC[n+]1c(-c2ccccc2)c2cc(N)ccc2c2ccc(N)cc21
dose: 1.5 mg/kg/injection, schedule: Q01DX009 (ip), vehicle: saline
  T/C: 107 % of control
dose: 3.0 mg/kg/injection, schedule: Q01DX009 (ip), vehicle: saline
  T/C: 100 % of control
dose: 3.12 mg/kg/injection, schedule: Q04DX003 (ip), vehicle: saline
  T/C: 100 % of control
dose: 6.25 mg/kg/injection, schedule: Q04DX003 (ip), vehicle: saline
  T/C: 100 % of control

## CC(=O)OCc1c(C)nc2sccn12
dose: 12.5 mg/kg/injection, schedule: Q01DX001 (ip), vehicle: saline
  T/C: 102 % of control
dose: 25.0 mg/kg/injection, schedule: Q01DX001 (ip), vehicle: saline
  T/C: 92 % of control
dose: 50.0 mg/kg/injection, schedule: Q01DX001 (ip), vehicle: saline
  T/C: 96 % of control

## CCCCCCCCCCCCN1C(=O)[N+](C)(C)N=C1[O-]
[9]
  T/C: 90 % of control
[8]
  T/C: 90 % of control
[3]
  T/C: 92 % of control

## NC(=S)N/N=C/c1ccc(-c2ccccc2)cc1
dose: 12.5 mg/kg/injection, schedule: Q01DX009 (ip), vehicle: saline with Tween-80
  T/C: 90 % of control
[9]
  T/C: 109 % of control
[8]
  T/C: 86 % of control

## CCCCN(CCCC)CCC(O)c1cc(-c2ccc(C(F)(F)F)cc2)nc(C(F)(F)F)c1 (stereo unspecified)
[8]
  T/C: 106 % of control

## CS(=O)(=O)c1nnc(-c2ccccc2)s1
[4]
  T/C: 94 % of control
[5]
  T/C: 100 % of control
dose: 400.0 mg/kg/injection, schedule: Q01DX009 (ip), vehicle: Klucel (hydroxypropylcellulose) (HPC)
  T/C: 103 % of control

## CCOC(=O)C(=O)C1CCNC1=O (stereo unspecified)
dose: 12.5 mg/kg/injection, schedule: Q04DX003 (ip), vehicle: saline with Tween-80
  T/C: 100 % of control
dose: 25.0 mg/kg/injection, schedule: Q04DX003 (ip), vehicle: saline with Tween-80
  T/C: 100 % of control
[7]
  T/C: 100 % of control

## COc1cccc2c1C(=O)c1c(O)c3c(c(O)c1C2=O)C[C@@](O)(C(O)O)C[C@@H]3OC1CC(N)C(O)C(C)O1 (stereo partly specified)
dose: 4.0 mg/kg/injection, schedule: Q01DX009 (ip), vehicle: water
  T/C: 169 % of control
dose: 8.0 mg/kg/injection, schedule: Q01DX009 (ip), vehicle: water
  T/C: 87 % of control
dose: 16.0 mg/kg/injection, schedule: Q01DX009 (ip), vehicle: water
  T/C: 87 % of control
